What was measured:
Test in all cases: KINOMEscan competition binding
Details in all cases: compound 10.0 µM
[1] = target: ADCK4 (human) (UniProt Q96D53)
[2] = target: ALK (human) (UniProt Q9UM73)
[3] = target: BMPR2 (human) (UniProt Q13873)
[4] = target: CDC42BPB (human) (UniProt Q9Y5S2)
[5] = target: CDK7 (human) (UniProt P50613)
[6] = target: CSNK1G1 (human) (UniProt Q9HCP0)
[7] = target: DCLK2 (human) (UniProt Q8N568)
[8] = target: DYRK1B (human) (UniProt Q9Y463)
[9] = target: EPHA6 (human) (UniProt Q9UF33)
[10] = target: GAK (human) (UniProt O14976)
[11] = target: LCK (human) (UniProt P06239)
[12] = target: MAP3K7 (human) (UniProt O43318)
[13] = target: MAPK10 (human) (UniProt P53779)
[14] = target: MARK2 (human) (UniProt Q7KZI7)
[15] = target: MELK (human) (UniProt Q14680)
[16] = target: MERTK (human) (UniProt Q12866)
[17] = target: MKNK2 (human) (UniProt Q9HBH9)
[18] = target: NTRK1 (human) (UniProt P04629)
[19] = target: NTRK2 (human) (UniProt Q16620)
[20] = target: PAK4 (human) (UniProt O96013)
[21] = target: PKN1 (human) (UniProt Q16512)
[22] = target: PKN2 (human) (UniProt Q16513)
[23] = target: PRKCD (human) (UniProt Q05655)
[24] = target: PRKX (human) (UniProt P51817)
[25] = target: PTK6 (human) (UniProt Q13882)
[26] = target: RAF1 (human) (UniProt P04049)
[27] = target: ROS1 (human) (UniProt P08922)
[28] = target: RPS6KA5 KD1 (human) (UniProt O75582)
[29] = target: SIK2 (human) (UniProt Q9H0K1)
[30] = target: STK11 (human) (UniProt Q15831)
[31] = target: YES1 (human) (UniProt P07947)
[32] = target: CAMK2B (human) (UniProt Q13554)
[33] = target: CDK5 (human) (UniProt Q00535)
[34] = test system: EGFR (human), P00533 [752-759 del]

Sequence of LCK (human) (P06239 whole entry, looked up): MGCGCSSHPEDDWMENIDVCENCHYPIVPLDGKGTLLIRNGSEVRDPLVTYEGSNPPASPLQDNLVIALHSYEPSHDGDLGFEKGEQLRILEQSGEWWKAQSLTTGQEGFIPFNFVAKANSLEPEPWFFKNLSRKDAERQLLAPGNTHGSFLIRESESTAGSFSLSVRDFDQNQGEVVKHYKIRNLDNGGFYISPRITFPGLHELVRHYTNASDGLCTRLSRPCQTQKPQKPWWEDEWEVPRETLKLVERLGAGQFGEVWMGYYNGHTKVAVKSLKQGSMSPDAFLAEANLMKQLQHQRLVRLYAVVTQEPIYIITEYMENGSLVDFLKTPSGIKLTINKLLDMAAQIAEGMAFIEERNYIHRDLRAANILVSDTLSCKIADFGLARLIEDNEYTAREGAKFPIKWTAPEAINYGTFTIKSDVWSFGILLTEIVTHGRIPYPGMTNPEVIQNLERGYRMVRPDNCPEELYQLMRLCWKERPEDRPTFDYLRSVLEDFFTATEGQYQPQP
Sequence of PRKCD (human) (Q05655 whole entry, looked up): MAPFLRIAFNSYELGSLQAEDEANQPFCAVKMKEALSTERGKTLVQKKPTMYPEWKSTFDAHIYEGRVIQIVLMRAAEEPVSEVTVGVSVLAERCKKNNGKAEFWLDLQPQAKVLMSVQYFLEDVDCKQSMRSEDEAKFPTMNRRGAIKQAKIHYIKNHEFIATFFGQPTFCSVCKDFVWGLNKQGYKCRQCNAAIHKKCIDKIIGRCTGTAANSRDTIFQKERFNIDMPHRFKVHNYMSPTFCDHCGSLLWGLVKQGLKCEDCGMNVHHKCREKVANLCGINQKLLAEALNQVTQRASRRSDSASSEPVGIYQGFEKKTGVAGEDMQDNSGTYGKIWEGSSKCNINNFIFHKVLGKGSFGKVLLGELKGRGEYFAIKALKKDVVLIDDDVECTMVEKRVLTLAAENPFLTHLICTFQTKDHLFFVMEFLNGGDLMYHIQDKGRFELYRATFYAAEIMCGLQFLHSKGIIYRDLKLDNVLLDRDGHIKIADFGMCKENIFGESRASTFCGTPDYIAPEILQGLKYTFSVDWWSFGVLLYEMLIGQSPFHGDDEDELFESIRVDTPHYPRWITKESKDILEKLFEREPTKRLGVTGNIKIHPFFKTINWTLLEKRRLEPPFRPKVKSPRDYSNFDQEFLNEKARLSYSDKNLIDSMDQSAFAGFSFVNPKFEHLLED
Sequence of MAP3K7 (human) (O43318 whole entry, looked up): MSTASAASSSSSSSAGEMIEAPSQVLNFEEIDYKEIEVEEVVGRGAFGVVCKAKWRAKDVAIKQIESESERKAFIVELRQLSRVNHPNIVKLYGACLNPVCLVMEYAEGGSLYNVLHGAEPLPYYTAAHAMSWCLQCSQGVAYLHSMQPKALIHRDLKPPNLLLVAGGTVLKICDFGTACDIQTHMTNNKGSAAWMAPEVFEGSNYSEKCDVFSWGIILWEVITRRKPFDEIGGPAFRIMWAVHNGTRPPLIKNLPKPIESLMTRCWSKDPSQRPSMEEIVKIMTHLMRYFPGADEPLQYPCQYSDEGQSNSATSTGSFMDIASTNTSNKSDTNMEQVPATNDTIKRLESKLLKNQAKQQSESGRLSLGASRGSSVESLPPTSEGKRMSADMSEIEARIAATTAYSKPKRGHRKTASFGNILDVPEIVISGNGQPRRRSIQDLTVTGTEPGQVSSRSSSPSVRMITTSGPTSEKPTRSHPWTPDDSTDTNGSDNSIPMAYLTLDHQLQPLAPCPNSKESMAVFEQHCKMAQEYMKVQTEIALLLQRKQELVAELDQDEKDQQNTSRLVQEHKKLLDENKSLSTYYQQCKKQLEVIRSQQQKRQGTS
Sequence of MELK (human) (Q14680 whole entry, looked up): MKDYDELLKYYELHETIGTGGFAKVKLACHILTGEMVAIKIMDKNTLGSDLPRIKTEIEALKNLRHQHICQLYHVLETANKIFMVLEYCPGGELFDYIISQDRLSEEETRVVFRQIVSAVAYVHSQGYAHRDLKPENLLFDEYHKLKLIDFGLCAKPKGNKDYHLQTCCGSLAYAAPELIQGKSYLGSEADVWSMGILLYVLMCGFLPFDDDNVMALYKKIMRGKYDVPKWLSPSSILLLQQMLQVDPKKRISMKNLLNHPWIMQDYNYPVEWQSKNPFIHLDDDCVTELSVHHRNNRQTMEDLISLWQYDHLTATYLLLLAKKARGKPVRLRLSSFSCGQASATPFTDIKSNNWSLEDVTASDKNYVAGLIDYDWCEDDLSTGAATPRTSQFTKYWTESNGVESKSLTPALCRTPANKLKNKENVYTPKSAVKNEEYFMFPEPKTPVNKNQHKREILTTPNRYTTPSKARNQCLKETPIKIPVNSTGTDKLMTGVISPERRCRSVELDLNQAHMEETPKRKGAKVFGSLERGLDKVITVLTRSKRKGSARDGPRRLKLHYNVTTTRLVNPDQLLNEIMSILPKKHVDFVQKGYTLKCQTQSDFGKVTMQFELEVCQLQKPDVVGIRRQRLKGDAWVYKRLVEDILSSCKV
Sequence of ROS1 (human) (P08922 whole entry, looked up): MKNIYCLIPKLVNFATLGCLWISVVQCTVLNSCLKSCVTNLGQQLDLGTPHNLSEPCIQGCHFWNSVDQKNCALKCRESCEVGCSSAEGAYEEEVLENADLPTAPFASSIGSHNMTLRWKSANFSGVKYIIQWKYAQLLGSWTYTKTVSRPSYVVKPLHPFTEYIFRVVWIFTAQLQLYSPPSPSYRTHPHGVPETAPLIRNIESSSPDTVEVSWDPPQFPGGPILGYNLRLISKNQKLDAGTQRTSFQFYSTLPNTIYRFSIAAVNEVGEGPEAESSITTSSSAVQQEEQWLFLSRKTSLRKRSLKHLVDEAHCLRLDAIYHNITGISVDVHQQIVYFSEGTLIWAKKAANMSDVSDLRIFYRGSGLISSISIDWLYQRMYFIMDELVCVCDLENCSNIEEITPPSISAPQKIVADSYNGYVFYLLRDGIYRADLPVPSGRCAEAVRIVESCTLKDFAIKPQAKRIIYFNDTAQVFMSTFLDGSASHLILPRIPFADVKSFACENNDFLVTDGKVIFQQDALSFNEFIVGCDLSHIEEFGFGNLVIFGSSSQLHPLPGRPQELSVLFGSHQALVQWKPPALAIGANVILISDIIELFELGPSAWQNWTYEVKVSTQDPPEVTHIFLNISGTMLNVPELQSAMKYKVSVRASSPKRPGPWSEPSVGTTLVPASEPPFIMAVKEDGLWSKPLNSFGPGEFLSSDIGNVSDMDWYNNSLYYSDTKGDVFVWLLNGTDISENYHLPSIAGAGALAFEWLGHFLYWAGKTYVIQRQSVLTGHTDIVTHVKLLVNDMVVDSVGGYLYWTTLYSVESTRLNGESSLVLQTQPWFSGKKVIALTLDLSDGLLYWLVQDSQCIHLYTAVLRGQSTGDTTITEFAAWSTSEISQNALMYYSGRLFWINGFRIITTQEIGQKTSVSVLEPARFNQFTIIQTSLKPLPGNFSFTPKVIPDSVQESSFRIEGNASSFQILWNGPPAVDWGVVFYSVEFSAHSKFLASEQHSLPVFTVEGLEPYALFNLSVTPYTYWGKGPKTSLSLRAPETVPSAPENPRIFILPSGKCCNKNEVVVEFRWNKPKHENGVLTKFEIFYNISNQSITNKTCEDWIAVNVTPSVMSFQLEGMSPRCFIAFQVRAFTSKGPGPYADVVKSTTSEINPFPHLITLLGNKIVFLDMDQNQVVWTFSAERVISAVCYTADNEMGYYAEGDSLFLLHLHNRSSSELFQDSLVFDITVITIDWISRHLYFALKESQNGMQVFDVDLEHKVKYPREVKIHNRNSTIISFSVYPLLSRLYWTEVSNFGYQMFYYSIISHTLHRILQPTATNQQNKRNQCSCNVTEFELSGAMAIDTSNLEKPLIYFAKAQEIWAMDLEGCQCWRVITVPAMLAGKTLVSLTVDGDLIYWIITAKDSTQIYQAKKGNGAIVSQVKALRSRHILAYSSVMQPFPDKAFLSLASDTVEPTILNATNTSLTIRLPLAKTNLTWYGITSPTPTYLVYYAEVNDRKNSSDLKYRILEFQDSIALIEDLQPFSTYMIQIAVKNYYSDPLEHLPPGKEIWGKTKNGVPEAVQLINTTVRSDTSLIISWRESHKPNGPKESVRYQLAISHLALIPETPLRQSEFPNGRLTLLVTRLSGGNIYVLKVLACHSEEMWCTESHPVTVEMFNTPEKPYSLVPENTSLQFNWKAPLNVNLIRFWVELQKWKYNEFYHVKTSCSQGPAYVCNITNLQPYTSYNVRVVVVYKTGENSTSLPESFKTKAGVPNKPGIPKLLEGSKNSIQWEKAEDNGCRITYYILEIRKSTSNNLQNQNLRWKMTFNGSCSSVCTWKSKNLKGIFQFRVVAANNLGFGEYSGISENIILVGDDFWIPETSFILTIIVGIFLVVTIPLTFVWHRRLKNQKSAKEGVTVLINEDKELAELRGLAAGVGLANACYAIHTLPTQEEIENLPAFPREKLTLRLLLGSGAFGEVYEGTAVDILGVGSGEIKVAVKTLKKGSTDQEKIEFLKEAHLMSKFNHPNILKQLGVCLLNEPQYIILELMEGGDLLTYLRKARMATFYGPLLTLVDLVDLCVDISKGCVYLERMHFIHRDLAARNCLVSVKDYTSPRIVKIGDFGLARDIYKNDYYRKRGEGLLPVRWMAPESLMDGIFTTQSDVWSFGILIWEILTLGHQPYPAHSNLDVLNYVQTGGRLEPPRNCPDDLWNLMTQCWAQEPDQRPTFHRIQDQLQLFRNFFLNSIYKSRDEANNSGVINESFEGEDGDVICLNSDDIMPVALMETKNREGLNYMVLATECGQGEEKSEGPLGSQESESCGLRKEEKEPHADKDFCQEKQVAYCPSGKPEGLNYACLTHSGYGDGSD
Sequence of CDK5 (human) (Q00535 whole entry, looked up): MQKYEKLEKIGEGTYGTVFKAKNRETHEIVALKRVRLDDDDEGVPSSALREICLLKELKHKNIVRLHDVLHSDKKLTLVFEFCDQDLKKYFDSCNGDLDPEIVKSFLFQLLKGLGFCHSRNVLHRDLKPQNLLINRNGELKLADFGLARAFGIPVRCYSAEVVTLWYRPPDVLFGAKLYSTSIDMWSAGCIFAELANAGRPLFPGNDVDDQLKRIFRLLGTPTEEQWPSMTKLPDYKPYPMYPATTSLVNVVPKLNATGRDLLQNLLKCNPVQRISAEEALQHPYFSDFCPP

SMILES	kinase still bound, per cent of control [1] [%]	kinase still bound, per cent of control [2] [%]	kinase still bound, per cent of control [3] [%]	kinase still bound, per cent of control [4] [%]	kinase still bound, per cent of control [5] [%]	kinase still bound, per cent of control [6] [%]	kinase still bound, per cent of control [7] [%]	kinase still bound, per cent of control [8] [%]	kinase still bound, per cent of control [9] [%]	kinase still bound, per cent of control [10] [%]	kinase still bound, per cent of control [11] [%]	kinase still bound, per cent of control [13] [%]	kinase still bound, per cent of control [14] [%]	kinase still bound, per cent of control [15] [%]	kinase still bound, per cent of control [16] [%]	kinase still bound, per cent of control [17] [%]	kinase still bound, per cent of control [18] [%]	kinase still bound, per cent of control [19] [%]	kinase still bound, per cent of control [20] [%]	kinase still bound, per cent of control [21] [%]	other results
Cc1n[nH]c2ccc(-c3cncc(OC[C@@H](N)Cc4c[nH]c5ccccc45)c3)cc12	100	100	100	1	0.3	3.7	100	0	100	8.1	100	25	13	12	33	13	100	100	13	0	kinase still bound, per cent of control [12]: 3.2%; kinase still bound, per cent of control [22]: 2.4%; kinase still bound, per cent of control [23]: 0.85%; kinase still bound, per cent of control [24]: 12%; kinase still bound, per cent of control [25]: 100%; kinase still bound, per cent of control [26]: 100%; kinase still bound, per cent of control [27]: 100%; kinase still bound, per cent of control [28]: 11%; kinase still bound, per cent of control [29]: 100%; kinase still bound, per cent of control [30]: 30%; kinase still bound, per cent of control [31]: 100%
CNC(=O)c1ccc(Nc2cc(Nc3ccccc3S(=O)(=O)C(C)C)c3cc[nH]c3n2)nc1	25	1.8	7.9	100	1.8	16	100	8.8	29	2.5	0.3	17	33	100	0.25	100	0.75	0	18	0	kinase still bound, per cent of control [32]: 100%; kinase still bound, per cent of control [33]: 28%; kinase still bound, per cent of control [34]: 100%; kinase still bound, per cent of control [12]: 0.35%; kinase still bound, per cent of control [22]: 5.4%; kinase still bound, per cent of control [23]: 15%; kinase still bound, per cent of control [24]: 100%; kinase still bound, per cent of control [25]: 25%; kinase still bound, per cent of control [26]: 100%; kinase still bound, per cent of control [27]: 0.85%; kinase still bound, per cent of control [28]: 100%; kinase still bound, per cent of control [29]: 9.8%; kinase still bound, per cent of control [30]: 18%; kinase still bound, per cent of control [31]: 1.6%
C=CC(=O)Nc1ccc(CN(C(=O)Nc2c(Cl)c(OC)cc(OC)c2Cl)c2cc(Nc3ccc(N4CCN(C)CC4)cc3)ncn2)cc1	100	100	8.9	100	100	100	100	100	100	100	0.2	100	100	100	100	100	100	100	100	100	kinase still bound, per cent of control [32]: 100%; kinase still bound, per cent of control [33]: 100%; kinase still bound, per cent of control [34]: 2.3%; kinase still bound, per cent of control [12]: 100%; kinase still bound, per cent of control [22]: 100%; kinase still bound, per cent of control [23]: 100%; kinase still bound, per cent of control [24]: 100%; kinase still bound, per cent of control [25]: 100%; kinase still bound, per cent of control [26]: 100%; kinase still bound, per cent of control [27]: 100%; kinase still bound, per cent of control [28]: 100%; kinase still bound, per cent of control [29]: 100%; kinase still bound, per cent of control [30]: 100%; kinase still bound, per cent of control [31]: 5.2%
CCN(CC)CCCCNc1ncc2cc(-c3cc(OC)cc(OC)c3)c(NC(=O)NC(C)(C)C)nc2n1	100	100	100	100	100	100	100	100	100	100	22	100	100	100	100	100	100	100	100	100	kinase still bound, per cent of control [32]: 100%; kinase still bound, per cent of control [33]: 100%; kinase still bound, per cent of control [22]: 100%; kinase still bound, per cent of control [23]: 100%; kinase still bound, per cent of control [24]: 100%; kinase still bound, per cent of control [25]: 100%; kinase still bound, per cent of control [26]: 100%; kinase still bound, per cent of control [27]: 100%; kinase still bound, per cent of control [28]: 100%; kinase still bound, per cent of control [29]: 100%; kinase still bound, per cent of control [30]: 100%; kinase still bound, per cent of control [31]: 100%
